Results on eleven compounds are retold here after the OPERA property sets (Mansouri et al. 2018).

By logP is commonly meant a log measure of how a compound divides between an organic and an aqueous phase. The low end stands for lower lipophilicity, the high end for higher lipophilicity. Turning to `CNC(=O)NC(=O)c1ccccc1`, the log partition coefficient (logP) worked out at 1.27. The same measure for `CCNC(=O)NC(=O)c1ccccc1`: 1.92; for `O=C(NC(=O)c1c(F)cccc1F)Nc1ccc(F)cc1`: 3.2; for `CCNC(=O)NC(C)=O`: -0.01. The same measure for `CNC(N)=O`: -1.4. In the case of `CC(=O)NC(=O)Nc1ccccc1`, the logP was 1.6. `O=C(NC(=O)c1c(F)cccc1F)Nc1ccc(Cl)cc1` yielded a logP of 3.88.

`CNC(=O)NC(C)=O` gave a logP of -0.7. The result for `COc1ccccc1C(=O)NC(=O)Nc1ccc(Cl)cc1` reads 4.35; that for `O=C(NC(=O)c1ccccc1)Nc1ccccc1`, 3.39.

On to `Cc1cccc([N+](=O)[O-])c1C(=O)NC(=O)Nc1ccc(Cl)cc1`, for which the logP turned out to be 3.75.
